The results in this text go back to patent publication EP4782453A1 (Beyang Therapeutics Co., Ltd., priority 2023, dated 2025).

Each structure is given as a SMILES string. pEC50, pIC50: −log10 of the molar value. Read-outs that look alike come from different tables or passages of the source.

In assay [1] the target is T1, Menin-MLL (Homo sapiens, UniProt O00255).
T1 construct: His-Menin (M1-L615 end); purchased BIORTUS BP9210
T1 sequence (O00255 1-615 isoform O00255-1): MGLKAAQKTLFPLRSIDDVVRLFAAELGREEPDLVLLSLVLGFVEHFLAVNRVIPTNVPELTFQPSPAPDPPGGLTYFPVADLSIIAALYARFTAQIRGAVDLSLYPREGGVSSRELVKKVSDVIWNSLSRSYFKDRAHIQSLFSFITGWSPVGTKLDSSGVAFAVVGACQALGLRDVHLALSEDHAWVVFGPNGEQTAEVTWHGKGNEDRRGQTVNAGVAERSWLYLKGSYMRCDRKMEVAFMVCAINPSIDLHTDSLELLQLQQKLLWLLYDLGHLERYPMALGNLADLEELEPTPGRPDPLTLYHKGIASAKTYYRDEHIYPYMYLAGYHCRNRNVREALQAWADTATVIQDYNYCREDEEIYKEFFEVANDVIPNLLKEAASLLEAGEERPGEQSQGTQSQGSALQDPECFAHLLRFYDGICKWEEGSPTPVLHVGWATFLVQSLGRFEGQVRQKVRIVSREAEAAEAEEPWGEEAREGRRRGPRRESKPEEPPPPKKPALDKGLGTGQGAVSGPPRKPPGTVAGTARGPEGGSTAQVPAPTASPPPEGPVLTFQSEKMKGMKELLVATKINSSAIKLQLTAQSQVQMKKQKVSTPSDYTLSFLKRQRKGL
The experiment in a line: Inhibitory activity against Menin-MLL binding (fluorescence polarization). As to conditions: 150 nM His-Menin, 15 nM FITC-MLL, 25°C for 60 min. Put shortly:
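His-Menin (M1-L615, 150 nM) preincubated with compound 15 min at 25 °C in HEPES pH 7.5, 50 mM NaCl, 1 mM DTT, 0.01% BSA, then 15 nM FITC-MLL4-43 peptide added for 60 min at 25 °C. Fluorescence polarization read; IC50 from 4-parameter logistic fit, duplicates.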
In general terms: In fluorescence polarisation assays a small probe gives low polarisation when free and higher when bound to something large.

For assay [2], the system named is MEIS1 gene expression. The experiment in a line: Inhibition of MEIS1 gene expression in human tumor cells (qRT-PCR), MV-4-11. The format is cell-based. As to conditions: MV4-11, MV-4-11 (carrying MLL-AF4), 48 hours of incubation, relative MEIS1 gene expression vs GAPDH, read-out: MV-4-11 MEISI EC50. The source says: Experimental Example 3: Evaluation of Inhibitory Activity of Compounds Against MEISI Gene Expression in Human Tumor Cells
The effect of test samples on MEIS1 gene expression in vitro cultured human leukemia cells MV-4-11 (carrying MLL-AF4), MOLM-13 (carrying MLL-AF9), and OCI-AML3 (carrying NPM1c) was studied.
• Human acute lymphoblastic leukemia cells MV-4-11, purchased from American Type Culture Collection, Catalog Number: CRL-9591; • Human acute myeloid leukemia cells MOLM-13, purchased from COBIOER BIOSCIENCES CO., LTD, Catalog Number: CBP60678; • Human acute myeloid leukemia cells OCI-AML3, purchased from COBIOER BIOSCIENCES CO., LTD, Catalog Number: CBP60817; • MEIS1 Primer/Probe, purchased from IDT, Catalog Number: 40831613; and • GAPDH Primer/Probe, purchased from IDT, Catalog Number: 22214836.
MV-4-11 cells were cultured in an IMDM medium containing 10% fetal bovine serum, or MOLM-13 and OCI-AML3 cells were cultured in an RPMI-1640 medium containing 20% fetal bovine serum, each supplemented with 100 U·mL^-1 penicillin and 100 µg·mL^-1 streptomycin. These cells were cultured at 37°C with 5% CO2. The suspensions of individual cell lines were prepared in their respective media and seeded into 48-well plates at a density of 100,000 cells/well. On the day of the experiment, a compound stock solution was diluted in a 6-fold gradient using DMSO. Each gradient-diluted stock solution was then further diluted 250-fold with a complete medium to prepare a series of working solutions at different concentrations. Next, 250 µL of working solution (containing the complete medium with a 2-fold serial concentration of the test compound or a positive control compound, or containing a control complete medium) was added to each well. After 48 hours of incubation, cells from the 48-well plate were collected into 1 mL centrifuge tubes, centrifuged at 1000 rpm for 5 minutes, and the complete medium was removed. Cells were washed twice with 1 mL PBS and centrifuged to remove PBS. Total RNA was extracted using the RNeasy Mini Kit (250) (QIAGEN, 74106). The threshold cycle (Ct) value for gene expression was determined using the HiScript II U+ One Step qRT-PCR Probe Kit (Vazyme) (Vazyme, Q223-01), with 3 replicates per sample. The prepared reaction mixture was placed in an ABI 7500 real-time PCR instrument, and the reaction proceeded following the procedures below. [formula]
Next, for the relative MEIS1 gene expression, the concentration (EC50) that inhibits 50% of relative MEIS1 gene expression was calculated using GraphPad Prism 8 software.

In assay [3] the test system is MV-4-11 (carrying MLL-AF4). The assay is described as follows: Inhibition of proliferation of human tumor cells (Alamar Blue, 7 days), MV-4-11. As to conditions: Homo sapiens, MV4-11, 168 h, MV-4-11 cells (carrying MLL-AF4), method calls the value GI50. It counts as cell-based. Put shortly: (§1)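 Cells seeded at 4,000/well (MV-4-11, MOLM-13) or 3,000/well (KG-1a) in serum-supplemented IMDM or RPMI-1640, 37°C, 5% CO2, then exposed to 3- or 4-fold compound dilutions in duplicate for 7 days. Alamar Blue fluorescence read; GI50 derived against Day 7 0.1% DMSO (high) and Day 0 (low) controls.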
Background: The colour change of resazurin is a common sign of viable cells or microbes.

Assay [4] deals with MOLM-13 (carrying MLL-AF9). The experiment in a line: Inhibition of proliferation of human tumor cells (Alamar Blue, 7 days), MOLM-13. It counts as cell-based. As to conditions: Homo sapiens, MOLM-13 cells (carrying MLL-AF9), method calls the value GI50. The method, boiled down:
as §1

The test system of assay [5] is KG-1a (wild-type MLL). The experiment in a line: Inhibition of proliferation of human tumor cells (Alamar Blue, 7 days), KG-1a control cell line. The format is cell-based. As to conditions: 168 h, KG-1a cells (wild-type MLL, control cell line), method calls the value GI50. The source says:
Experimental Example 2: Evaluation of Inhibitory Activity of Compounds Against Proliferation of Human Tumor Cells
• Human acute lymphoblastic leukemia cells MV-4-11, purchased from American Type Culture Collection, Catalog Number: CRL-9591; • Human acute myeloid leukemia cells MOLM-13, purchased from COBIOER BIOSCIENCES CO., LTD, Catalog Number: CBP60678; • Human acute myeloid leukemia cells KG-1a, purchased from American Type Culture Collection, Catalog Number: CCL-246.1; • Inverted Microscope, purchased from Olympus Tokyo; • Countess™ Automated Cell Counter, purchased from Invitrogen, Model: C10281; and • Multilabel Reader, purchased from Bio-Tek, Model: Synergy HT.
MV-4-11 cells were cultured in an IMDM medium containing 10% fetal bovine serum, KG-a cells were cultured in an IMDM medium containing 20% fetal bovine serum, or MOLM-13 cells were cultured in an RPMI-1640 medium containing 20% fetal bovine serum, each supplemented with 100 U·mL^-1 penicillin and 100 µg·mL^-1 streptomycin. These cells were cultured at 37°C with 5% CO2. The suspensions of individual cell lines were prepared in their respective media and seeded into 96-well plates at a density of 4,000 cells/well for MV-4-11 and MOLM-13 cells, or 3,000 cells/well for KG-1a cells. On the day of the experiment, a compound stock solution was diluted in a 3-fold or 4-fold gradient using DMSO. Each gradient-diluted stock solution was then further diluted 250-fold with a complete medium to prepare a series of working solutions at different concentrations. Subsequently, 100 µL of working solution (containing a 2-fold concentration series of the test compound) was added to each well, with duplicate wells set up for each concentration.
Seven days after compound addition (on Day 7), an Alamar Blue assay reagent (MCE, HY-111391 / CS-0040317) was added to measure the fluorescence intensity in each well. Wells containing the cells in the growth medium supplemented with 0.1% DMSO (Day 7) served as high-read control wells. The readouts from the wells containing the cells in the growth medium supplemented with 0.1% DMSO on the day of compound addition (Day 0) served as low-reading control well. GraphPad Prism software was used to calculate the concentration required to inhibit 50% of cell proliferation (GI50), which serves as a cell proliferation inhibition activity index.

Where [6] appears, read: fluorescence polarization, read-out: Menin-MLL IC50.

`CCN(C(=O)c1cc(F)ccc1-c1cc(C2CCN(C[C@H]3CC[C@H](NS(=O)(=O)CC)CC3)C2)cn2c(C)ncc12)C(C)C` (mixture of isomers) [Example 30, N-ethyl-5-fluoro-2-[3-methyl-6-(1-{[(1r,4r)-4-ethanesulfonamidocyclohexyl]methyl}pyrrolidin-3-yl)imidazo[1,5-a]pyridin-8-yl]-N-(isopropyl)benzamide] showed a pIC50 in assay [1] (Menin-MLL IC50, fluorescence polarization) of 8.22. The pEC50 in assay [2] was 7.70.

Consider `Cc1nc(F)c2c(-c3ccc(F)cc3C(=O)N3CCC[C@H]3C)cc(C3CN(C(C)C4CCOCC4)C3)cn12` (stereo partly drawn) [Example 188], for which the pIC50 in assay [1] (setting [6]) is 7.92; in assay [3] it was 8.04; in assay [4] (168 h), 7.57. Besides, the pEC50 in assay [2] is 7.38.

On to `CC(=O)N1CCC(CN2CC(c3cc(-c4ccc(F)cc4C(=O)N4CCC[C@H]4C)c4c(F)nc(C)n4c3)C2)CC1` [Example 189], for which the pIC50 in assay [1] (setting [6]) is 7.48; in assay [3] it was 7.54; in assay [4] (168 h), 7.36. In addition, the pEC50 in assay [2] was 7.05.

Turning to `Cc1nc(F)c2c(-c3ccc(F)cc3C(=O)N3CCOC[C@H]3C)cc(C3CN([C@H](CC[C@H]4CNCCO4)C(C)C)C3)cn12` [Example 244-1, (3R)-4-[5-fluoro-2-(1-fluoro-3-methyl-6-{1-[(3R)-4-methyl-1-[(2S)-morpholin-2-yl]pentan-3-yl]azacyclobutan-3-yl}imidazo[1,5-a]pyridin-8yl)benzoyl]-3-methylmorpholine], the pIC50 in assay [1] (setting [6]) is 8.02; in assay [3], 7.80; in assay [4] (168 h) it was 7.41; in assay [5] it was 4.70.

Turning to `Cc1nc(F)c2c(-c3ccc(F)cc3C(=O)N3CCOC[C@H]3C)cc(C3CN([C@H](CC[C@@H]4CNCCO4)C(C)C)C3)cn12` [Example 245-1, (3R)-4-[5-fluoro-2-(1-fluoro-3-methyl-6-{1-[(3R)-4-methyl-1-[(2R)-morpholin-2-yl]pentan-3-yl]azacyclobutan-3-yl}imidazo[1,5-a]pyridin-8yl)benzoyl]-3-methylmorpholine], the pIC50 was 8.07 in assay [1] (setting [6]), 8.18 in assay [3], 7.40 in assay [4] (168 h) and 4.70 in assay [5].

For the molecule `Cc1cncc2c(-c3ccc(F)cc3C(=O)N3CCOC[C@H]3C)cc(CC3CN(CC4CCOCC4)C3)n12` [Example 260], the pIC50 was 8.52 in assay [1] (setting [6]); 8.15 in assay [3]; 8.00 in assay [4] (MOLM-13, 168 h). For the same molecule, the pEC50 in assay [2] was 8.12.

Consider `Cc1nc(F)c2c(-c3ccc(F)cc3C(=O)N3CCOC[C@H]3C)cc(C3CN([C@@H](C)C4CCN(C(=O)CC#N)CC4)C3)cn12` [Example 263-2], for which the pIC50 was 8.15 in assay [1] (setting [6]), 8.28 in assay [3], 7.89 in assay [4] (168 h) and 4.70 in assay [5].

Turning to `Cc1cncc2c(-c3ccc(F)cc3C(=O)N3CCOC[C@H]3C)cc(CC3CN(CC4CCN(C(=O)C5CC5)CC4)C3)n12` [Example 286, (3R)-4-{2-[6-({1-[(1-cyclopropanecarbonylpiperidin-4-yl)methyl]azacyclobutan-3-yl}methyl)-4-methylpyrrolo[1,2-a]pyrazin-8-yl]-5-fluorobenzoyl}-3-methylmorpholine], the pIC50 in assay [1] (setting [6]) was 8.46; in assay [3] it was 8.34; in assay [4] (168 h), 7.72; in assay [5] it was 4.70.

Take `CCC(=O)N1CCC(CN2CC(Cc3cc(-c4ccc(F)cc4C(=O)N4CCOC[C@H]4C)c4cncc(C)n34)C2)CC1` [Example 287]: the pIC50 was 8.22 in assay [1] (setting [6]), 8.05 in assay [3], 7.32 in assay [4] (168 h) and 4.70 in assay [5].

For the molecule `CCN(C(=O)c1cc(F)ccc1-c1cc(C2CN(CC3CCN(C(C)=O)CC3)C2)cn2c(C)ncc12)C(C)C` [Example 289, 2-(6-{1-[(1-acetylpiperidin-4-yl)methyl]azacyclobutan-3-yl}-3-methylimidazo[1,5-a]pyridin-8-yl)-N-ethyl-5-fluoro-N-(isopropyl)benzamide], the pIC50 in assay [1] (setting [6]) was 8.00; in assay [3], 7.96; in assay [4] (168 h), 7.35; in assay [5], 4.70.

Regarding `Cc1nc(F)c2c(-c3ccc(F)cc3C(=O)N3CCOC[C@H]3C)cc(C3CN([C@@H](CO[C@H]4CCCN(C)C4)C(C)C)C3)cn12` [Example 321-1, (3R)-4-[5-fluoro-2-(1-fluoro-3-methyl-6-{1-[(2R)-3-methyl-1-{[(3S)-1-methylpiperidin-3-yl]oxy}butan-2-yl]azacyclobutan-3-yl}imidazo[1,5-a]pyridin-8yl)benzoyl]-3-methylmorpholine], the pIC50 was 7.97 in assay [1] (setting [6]), 8.19 in assay [3] and 7.34 in assay [4] (168 h). Also, the pEC50 in assay [2] was 7.28.

For orientation: pIC50 means the IC50 on a negative log10 scale, so that one unit is a factor of ten. One may read the pEC50 as −log10 of the EC50, conventionally taken in molar units.
